Assay results from patent US20070128217A1 (priority 2003, published 2007).

Legend:
[1] = tested on: control sera (pooled serum of ten healthy LUMC hospital workers; commercial negative donor pooled serum from the Dutch bloodbank); type: binding, human; design: Binding of Control serum LUMC to linear peptides / Binding of Control serum Blood-bank to linear peptides / Binding of Control serum LUMC to looped peptides / Binding of Control Serum Blood-Bank to Looped peptides / Binding of Control serum LUMC to linear peptides of the protein M of SARS-CoV Urbani / Binding of Control serum Blood-bank to linear peptides of the protein M of SARS-CoV Urbani / Binding of Control serum LUMC to looped peptides of the protein M of SARS-CoV Urbani / Binding of Control Serum Blood-Bank to Looped peptides of the protein M of SARS-CoV Urbani: unit not given here
[2] = tested on: rabbit serum obtained by immunizing a rabbit with the SARS-CoV strain Frankfurt 1; type: binding; design: Binding of a rabbit serum to linear peptides / Binding of a rabbit serum to looped peptides / Rabbit serum linear peptides / Rabbit serum looped peptides / Binding of a rabbit serum to linear peptides of protein N of SARS-CoV Urbani (Rabbit serum linear peptides) / Binding of a rabbit serum to looped/cyclic peptides of protein N of SARS-CoV Urbani (Rabbit serum looped peptides): unit not given here
[3] = tested on: recombinant human anti-SARS-CoV antibody 03-018; type: binding; design: Binding of antibody 03-018 to linear peptides of the N protein of SARS-CoV Urbani / Binding of antibody 03-018 to looped/cyclic peptides of the N protein of SARS-CoV Urbani: unit not given here
[4] = tested on: antibodies in sera from SARS patients (sera 1a, 1b, 2, 6, 37, 62, London, SARS-yellow, SARS-green); type: binding, human; design: Binding of serum 6 to linear peptides of protein X1 of SARS-CoV Urbani / Binding of serum 37 to linear peptides of protein X1 of SARS-CoV Urbani / Binding of serum 6 to looped/cyclic peptide (PEPSCAN-ELISA) / Binding of serum 37 to looped/cyclic peptide (PEPSCAN-ELISA) / Binding of serum 37 to looped/cyclic peptides of protein X1 of SARS-CoV Urbani / Binding of serum 6 to linear peptides of protein X2 / Binding of serum 37 to linear peptides of protein X2 / Binding of serum 37 to looped/cyclic peptides of protein X2 of SARS-CoV Urbani / Binding of serum 6 to linear peptides of protein M of SARS-CoV Urbani / Binding of serum 37 to linear peptides of protein M of SARS-CoV Urbani / Binding of serum 6 to looped/cyclic peptides of protein M of SARS-CoV Urbani / Binding of serum 37 to looped/cyclic peptides of protein M of SARS-CoV Urbani / Binding of serum 6 to linear peptides of protein X3 of SARS-CoV Urbani / Binding of serum 37 to linear peptides of protein X3 of SARS-CoV Urbani / Binding of serum 37 to looped/cyclic peptides of protein X3 of SARS-CoV Urbani / Binding of serum 6 to linear peptides of protein X4 of SARS-CoV Urbani / Binding of serum 37 to linear peptides of protein X4 of SARS-CoV Urbani / Binding of serum 37 to looped/cyclic peptides of protein X4 of SARS-CoV Urbani / Binding of serum 6 to linear peptides of protein X5 of SARS-CoV Urbani / Binding of serum 37 to linear peptides of protein X5 of SARS-CoV Urbani / Binding of serum 37 to looped/cyclic peptides of protein X5 of SARS-CoV Urbani / Binding of serum 6 to linear peptides of protein N of SARS-CoV Urbani / Binding of serum 37 to linear peptides of protein N of SARS-CoV Urbani / Binding of serum 6 to linear peptide (PEPSCAN-ELISA) / Binding of serum 1a to looped/cyclic peptides of protein N of SARS-CoV Urbani / Binding of serum 1b to looped/cyclic peptides of protein N of SARS-CoV Urbani / Binding of serum 2 to looped/cyclic peptides of protein N of SARS-CoV Urbani / Binding of serum 6 to looped/cyclic peptides of protein N of SARS-CoV Urbani / Binding of serum 37 to looped/cyclic peptides of protein N of SARS-CoV Urbani / Binding of serum 62 to looped/cyclic peptides of protein N of SARS-CoV Urbani / Binding of serum London to looped/cyclic peptides of protein N of SARS-CoV Urbani / Binding of serum SARS-green to looped/cyclic peptides of protein N of SARS-CoV Urbani: unit not given here

| Sequence | Binding of Control Serum Blood-Bank to Looped peptides [1] | Binding of Control serum Blood-bank to linear peptides [1] | Binding of Control serum LUMC to linear peptides [1] | Binding of Control serum LUMC to looped peptides [1] | Binding of a rabbit serum to linear peptides of protein N of SARS-CoV Urbani (Rabbit serum linear peptides) [2] | Binding of a rabbit serum to looped/cyclic peptides of protein N of SARS-CoV Urbani (Rabbit serum looped peptides) [2] | Binding of antibody 03-018 to linear peptides of the N protein of SARS-CoV Urbani [3] | Binding of antibody 03-018 to looped/cyclic peptides of the N protein of SARS-CoV Urbani [3] | Binding of serum 1a to linear peptides of protein N of SARS-CoV Urbani [4] | Binding of serum 1a to looped/cyclic peptides of protein N of SARS-CoV Urbani [4] | Binding of serum 1b to linear peptides of protein N of SARS-CoV Urbani [4] | Binding of serum 1b to looped/cyclic peptides of protein N of SARS-CoV Urbani [4] | Binding of serum 2 to linear peptides of protein N of SARS-CoV Urbani [4] | Binding of serum 2 to looped/cyclic peptides of protein N of SARS-CoV Urbani [4] | Binding of serum 6 to looped/cyclic peptides of protein N of SARS-CoV Urbani [4] | Binding of serum 37 to looped/cyclic peptides of protein N of SARS-CoV Urbani [4] | Binding of serum 62 to looped/cyclic peptides of protein N of SARS-CoV Urbani [4] | Binding of serum London to looped/cyclic peptides of protein N of SARS-CoV Urbani [4] | Binding of serum SARS-green to looped/cyclic peptides of protein N of SARS-CoV Urbani [4] | Binding of serum SARS-yellow to looped/cyclic peptides of protein N of SARS-CoV Urbani [4] | other results |
| --- | --- | --- | --- | --- | --- | --- | --- | --- | --- | --- | --- | --- | --- | --- | --- | --- | --- | --- | --- | --- | --- |
| NKEGIVWVATEGALN | 0.6 | 0.7 | 0.7 | 0.6 | 0.1 | 0.2 | 0.1 | 0.2 | 0.3 | 0.3 | 0.1 | 0.2 | 0.2 | 0.4 | 0.2 | 0.6 | 0.4 | 0.3 | 0.3 | 0.4 | Binding of serum 6 to linear peptides of protein N of SARS-CoV Urbani [4]: 0.2; Binding of serum 37 to linear peptides of protein N of SARS-CoV Urbani [4]: 0.7; Binding of serum 62 to linear peptides of protein N of SARS-CoV Urbani [4]: 0.6; Binding of serum London to linear peptides of protein N of SARS-CoV Urbani [4]: 0.4; Binding of serum SARS-green to linear peptides of protein N of SARS-CoV Urbani [4]: 0.4; Binding of serum SARS-yellow to linear peptides of protein N of SARS-CoV Urbani [4]: 0.9 |
| QGQTVTKKSAAEASK | 0.4 | 1.1 | 1.0 | 0.4 | 0.2 | 0.2 | 0.1 | 0.2 |  | 0.2 |  | 0.1 |  | 0.2 | 0.1 | 0.4 | 0.2 | 0.3 | 0.1 | 0.2 | Recognition of the peptide by sera of SARS-CoV infected individuals, and form (linear, looped/cyclic) in which it is recognized [4]: recognized in linear form |
| QGLPNNTASWFTALT | 0.8 | 0.6 | 0.7 | 0.8 | 0.1 | 0.6 | 0.1 | 0.3 | 0.2 | 0.4 | 0.1 | 0.3 | 0.2 | 0.5 | 0.3 | 0.7 | 0.7 | 0.5 | 0.6 | 0.7 | Binding of serum 6 to linear peptides of protein N of SARS-CoV Urbani [4]: 0.1; Binding of serum 37 to linear peptides of protein N of SARS-CoV Urbani [4]: 0.6; Binding of serum 62 to linear peptides of protein N of SARS-CoV Urbani [4]: 0.7; Binding of serum London to linear peptides of protein N of SARS-CoV Urbani [4]: 0.4; Binding of serum SARS-green to linear peptides of protein N of SARS-CoV Urbani [4]: 0.2; Binding of serum SARS-yellow to linear peptides of protein N of SARS-CoV Urbani [4]: 0.6 |
| PTDSTDNNQNGGRNG | 0.5 | 1.0 | 0.8 | 0.4 | 0.1 | 0.1 | 0.1 | 0.2 | 0.3 | 0.3 | 0.2 | 0.2 | 0.3 | 0.3 | 0.2 | 0.5 | 0.3 | 0.4 | 0.4 | 0.5 | Binding of serum 6 to linear peptides of protein N of SARS-CoV Urbani [4]: 0.2; Binding of serum 37 to linear peptides of protein N of SARS-CoV Urbani [4]: 1.2; Binding of serum 62 to linear peptides of protein N of SARS-CoV Urbani [4]: 0.8; Binding of serum London to linear peptides of protein N of SARS-CoV Urbani [4]: 0.7; Binding of serum SARS-green to linear peptides of protein N of SARS-CoV Urbani [4]: 0.6; Binding of serum SARS-yellow to linear peptides of protein N of SARS-CoV Urbani [4]: 0.7 |
| LSPRWYFYYLGTGPE | 0.5 | 0.7 | 0.8 | 0.6 | 0.2 | 1.1 | 0.1 | 0.2 | 0.3 | 0.3 | 0.3 | 0.3 | 0.2 | 0.5 | 0.2 | 0.8 | 0.8 | 0.3 | 0.6 | 0.5 | Binding of serum 6 to linear peptides of protein N of SARS-CoV Urbani [4]: 0.2; Binding of serum 37 to linear peptides of protein N of SARS-CoV Urbani [4]: 1.0; Binding of serum 62 to linear peptides of protein N of SARS-CoV Urbani [4]: 0.9; Binding of serum London to linear peptides of protein N of SARS-CoV Urbani [4]: 0.5; Binding of serum SARS-green to linear peptides of protein N of SARS-CoV Urbani [4]: 0.9; Binding of serum SARS-yellow to linear peptides of protein N of SARS-CoV Urbani [4]: 0.6 |
